Results from paper PMC10174618, “Monoterpenoid aryl hydrocarbon receptor allosteric antagonists protect against ultraviolet skin damage in female mice” (Nature Communications, 2023).

Assays:
Assay in all cases: biochemical
Parameters in all cases: KINOMEscan scanMAX active site-directed competition binding assay, percent of control, 468 kinases
Conditions in all cases: competition binding, percent of control
[1] = target: T1, IKK-beta (Homo sapiens, UniProt O14920)
T1 construct: gene IKBKB
Protocol: (§1) The KINOMEscan^TM screening platform (scanMAX assay) employs a proprietary active site-directed competition binding assay that quantitatively measures the interactions between test compounds (here 100 μM S-carvone) and 468 human protein kinases. The assay was performed at Eurofins DiscoverX Corp. (Fremont, CA, USA). Blocking protein kinase C (PKC) activity was reported to inhibit the transcription of CYP1A1 but to exert no effect on the nuclear translocation of AhR[26], which was also the case here with carvones. Therefore, we tested whether carvones inhibit PKC catalytic activity. […] We also evaluated the interaction between 100 μM S-carvone and 468 human protein kinases, employing KINOMEscan^TM (scanMAX assay), a proprietary active site-directed competition binding assay. The minimal inhibitory threshold used by the screening platform KINOMEscan^TM is 35% of the control kinase activity. Among 468 kinases tested, 467 were above the 35% cutoff. Tyrosine kinase 2 TK2 (JH2 domain pseudokinase) activity was inhibited to 27% of the control activity, but this kinase is not relevant to the regulation of transcription activity (Fig. 5B; Figure S9). Overall, we excluded the possibility that the effects of carvones on AhR signaling are caused indirectly by the inhibition of the human kinome, particularly PKC.

[2] = target: FLT3(D835V) (Homo sapiens, UniProt P36888, D835V)
Protocol: as §1

[3] = target: CSNK2A1 (Homo sapiens, UniProt P68400)
Protocol: as §1

[4] = target: PIK3CA(C420R) (Homo sapiens, UniProt P42336, C420R)
Protocol: as §1

[5] = target: BMPR1B (Homo sapiens, UniProt O00238)
Protocol: as §1

[6] = target: SRMS (Homo sapiens, UniProt Q9H3Y6)
SRMS, sequence (Q9H3Y6 whole entry): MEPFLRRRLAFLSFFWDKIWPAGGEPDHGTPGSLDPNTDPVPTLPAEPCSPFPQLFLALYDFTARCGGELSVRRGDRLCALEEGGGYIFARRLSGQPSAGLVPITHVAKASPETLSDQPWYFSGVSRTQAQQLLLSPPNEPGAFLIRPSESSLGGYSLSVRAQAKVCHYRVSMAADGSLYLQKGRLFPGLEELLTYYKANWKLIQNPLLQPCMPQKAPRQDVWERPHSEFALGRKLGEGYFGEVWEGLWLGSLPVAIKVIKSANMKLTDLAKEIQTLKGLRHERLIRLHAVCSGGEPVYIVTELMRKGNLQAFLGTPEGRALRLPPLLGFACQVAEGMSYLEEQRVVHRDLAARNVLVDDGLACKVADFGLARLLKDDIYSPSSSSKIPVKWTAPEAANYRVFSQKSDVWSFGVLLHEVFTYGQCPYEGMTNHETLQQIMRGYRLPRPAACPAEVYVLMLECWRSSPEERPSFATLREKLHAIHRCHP
Protocol: as §1

[7] = target: T2, TRKC (Homo sapiens, UniProt Q16288)
T2 construct: gene NTRK3
Protocol: as §1

[8] = target: CAMK1 (Homo sapiens, UniProt Q14012)
CAMK1, sequence (Q14012 whole entry): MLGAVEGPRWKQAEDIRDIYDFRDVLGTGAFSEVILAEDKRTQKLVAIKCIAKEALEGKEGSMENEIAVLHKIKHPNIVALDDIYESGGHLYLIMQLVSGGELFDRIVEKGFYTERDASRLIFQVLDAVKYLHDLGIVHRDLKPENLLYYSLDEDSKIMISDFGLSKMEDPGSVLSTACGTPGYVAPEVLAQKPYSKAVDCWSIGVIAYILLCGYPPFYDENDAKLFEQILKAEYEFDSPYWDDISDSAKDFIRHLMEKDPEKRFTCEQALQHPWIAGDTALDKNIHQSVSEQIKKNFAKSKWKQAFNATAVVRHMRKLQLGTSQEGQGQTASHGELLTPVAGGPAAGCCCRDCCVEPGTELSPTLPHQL
Protocol: as §1

[9] = target: MST1R (Homo sapiens, UniProt Q04912)
Protocol: as §1

[10] = target: T3, MST2 (Homo sapiens, UniProt Q13188)
T3 construct: gene STK3
Protocol: as §1

[11] = target: T4, JAK3(JH1domain-catalytic) (Homo sapiens, UniProt P52333)
T4 construct: JH1domain-catalytic
Protocol: as §1

[12] = target: WEE1 (Homo sapiens, UniProt P30291)
WEE1, sequence (P30291 whole entry): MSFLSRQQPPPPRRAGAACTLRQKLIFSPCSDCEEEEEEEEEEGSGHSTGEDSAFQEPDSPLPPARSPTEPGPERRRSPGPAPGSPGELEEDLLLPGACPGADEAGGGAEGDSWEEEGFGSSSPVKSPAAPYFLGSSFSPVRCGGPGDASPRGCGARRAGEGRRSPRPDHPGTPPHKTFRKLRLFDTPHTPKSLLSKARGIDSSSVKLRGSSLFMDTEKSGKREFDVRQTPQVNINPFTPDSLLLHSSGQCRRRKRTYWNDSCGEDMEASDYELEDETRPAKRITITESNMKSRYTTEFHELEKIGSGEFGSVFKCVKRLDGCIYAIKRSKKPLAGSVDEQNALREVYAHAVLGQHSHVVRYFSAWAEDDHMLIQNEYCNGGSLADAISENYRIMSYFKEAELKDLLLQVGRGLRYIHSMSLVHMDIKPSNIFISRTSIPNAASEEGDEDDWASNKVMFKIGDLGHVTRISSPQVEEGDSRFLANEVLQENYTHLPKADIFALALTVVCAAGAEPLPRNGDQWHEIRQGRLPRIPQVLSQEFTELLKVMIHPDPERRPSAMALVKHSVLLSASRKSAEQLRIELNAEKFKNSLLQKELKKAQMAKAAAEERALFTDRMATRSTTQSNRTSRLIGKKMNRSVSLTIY
Protocol: as §1

[13] = target: RIOK2 (Homo sapiens, UniProt Q9BVS4)
Protocol: as §1

[14] = target: T5, SIK (Homo sapiens, UniProt P57059)
T5 construct: gene SIK1
T5 sequence (P57059 whole entry): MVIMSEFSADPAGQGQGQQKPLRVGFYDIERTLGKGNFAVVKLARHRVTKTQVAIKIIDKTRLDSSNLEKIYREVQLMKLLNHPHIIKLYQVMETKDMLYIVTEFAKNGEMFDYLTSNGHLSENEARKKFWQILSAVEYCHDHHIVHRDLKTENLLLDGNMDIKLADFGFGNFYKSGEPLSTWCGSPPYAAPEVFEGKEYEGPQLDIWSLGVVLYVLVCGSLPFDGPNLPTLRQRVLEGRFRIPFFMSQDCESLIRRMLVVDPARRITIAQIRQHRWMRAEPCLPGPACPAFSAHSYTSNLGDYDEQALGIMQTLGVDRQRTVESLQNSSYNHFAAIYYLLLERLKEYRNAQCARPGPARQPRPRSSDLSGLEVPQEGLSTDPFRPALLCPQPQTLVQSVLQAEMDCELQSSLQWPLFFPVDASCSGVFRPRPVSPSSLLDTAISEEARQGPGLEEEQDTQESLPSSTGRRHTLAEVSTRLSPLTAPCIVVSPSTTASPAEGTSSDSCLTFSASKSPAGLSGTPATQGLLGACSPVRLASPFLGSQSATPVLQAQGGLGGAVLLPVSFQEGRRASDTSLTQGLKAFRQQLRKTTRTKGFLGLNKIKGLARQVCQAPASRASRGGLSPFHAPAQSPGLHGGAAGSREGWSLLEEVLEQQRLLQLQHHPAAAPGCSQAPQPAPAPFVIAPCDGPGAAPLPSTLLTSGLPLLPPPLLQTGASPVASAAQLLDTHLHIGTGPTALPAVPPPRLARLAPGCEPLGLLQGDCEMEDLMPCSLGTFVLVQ
Protocol: as §1

[15] = target: PLK3 (Homo sapiens, UniProt Q9H4B4)
Protocol: as §1

[16] = target: CSNK2A2 (Homo sapiens, UniProt P19784)
Protocol: as §1

[17] = target: AURKA (Homo sapiens, UniProt O14965)
AURKA, sequence (O14965 whole entry): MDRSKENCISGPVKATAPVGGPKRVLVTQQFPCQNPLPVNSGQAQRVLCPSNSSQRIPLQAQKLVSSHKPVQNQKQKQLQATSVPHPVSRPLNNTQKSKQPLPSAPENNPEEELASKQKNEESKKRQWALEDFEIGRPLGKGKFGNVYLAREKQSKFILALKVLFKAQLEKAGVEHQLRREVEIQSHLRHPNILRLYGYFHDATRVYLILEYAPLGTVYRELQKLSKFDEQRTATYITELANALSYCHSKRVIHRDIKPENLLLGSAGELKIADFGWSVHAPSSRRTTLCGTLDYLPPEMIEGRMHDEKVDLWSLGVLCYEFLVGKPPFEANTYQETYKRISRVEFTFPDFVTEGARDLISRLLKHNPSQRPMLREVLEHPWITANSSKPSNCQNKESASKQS
Protocol: as §1

[18] = target: T6, RSK2(Kin.Dom.2-C-terminal) (Homo sapiens, UniProt P51812)
T6 construct: gene RPS6KA3; Kin.Dom.2-C-terminal
T6 sequence (P51812 whole entry): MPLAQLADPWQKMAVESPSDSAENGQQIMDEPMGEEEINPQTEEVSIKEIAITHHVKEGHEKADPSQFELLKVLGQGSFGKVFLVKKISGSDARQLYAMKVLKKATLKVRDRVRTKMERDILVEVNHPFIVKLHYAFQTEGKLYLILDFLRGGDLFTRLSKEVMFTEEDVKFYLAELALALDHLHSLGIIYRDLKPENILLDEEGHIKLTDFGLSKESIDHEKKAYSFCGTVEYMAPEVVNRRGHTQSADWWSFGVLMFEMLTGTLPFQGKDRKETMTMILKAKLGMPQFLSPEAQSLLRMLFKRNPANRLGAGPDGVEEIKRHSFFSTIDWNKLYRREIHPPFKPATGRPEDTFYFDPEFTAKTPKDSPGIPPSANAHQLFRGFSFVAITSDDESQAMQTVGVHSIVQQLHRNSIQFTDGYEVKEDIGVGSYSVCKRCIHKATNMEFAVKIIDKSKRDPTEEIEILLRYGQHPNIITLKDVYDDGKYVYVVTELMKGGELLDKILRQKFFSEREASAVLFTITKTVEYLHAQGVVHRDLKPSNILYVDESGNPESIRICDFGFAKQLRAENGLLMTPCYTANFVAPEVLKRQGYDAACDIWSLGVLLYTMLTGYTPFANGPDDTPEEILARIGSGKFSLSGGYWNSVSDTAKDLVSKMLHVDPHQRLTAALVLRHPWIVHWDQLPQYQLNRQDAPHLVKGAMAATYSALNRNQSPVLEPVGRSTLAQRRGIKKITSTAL
Protocol: as §1

[19] = target: PIP5K1A (Homo sapiens, UniProt Q99755)
PIP5K1A, sequence (Q99755 whole entry): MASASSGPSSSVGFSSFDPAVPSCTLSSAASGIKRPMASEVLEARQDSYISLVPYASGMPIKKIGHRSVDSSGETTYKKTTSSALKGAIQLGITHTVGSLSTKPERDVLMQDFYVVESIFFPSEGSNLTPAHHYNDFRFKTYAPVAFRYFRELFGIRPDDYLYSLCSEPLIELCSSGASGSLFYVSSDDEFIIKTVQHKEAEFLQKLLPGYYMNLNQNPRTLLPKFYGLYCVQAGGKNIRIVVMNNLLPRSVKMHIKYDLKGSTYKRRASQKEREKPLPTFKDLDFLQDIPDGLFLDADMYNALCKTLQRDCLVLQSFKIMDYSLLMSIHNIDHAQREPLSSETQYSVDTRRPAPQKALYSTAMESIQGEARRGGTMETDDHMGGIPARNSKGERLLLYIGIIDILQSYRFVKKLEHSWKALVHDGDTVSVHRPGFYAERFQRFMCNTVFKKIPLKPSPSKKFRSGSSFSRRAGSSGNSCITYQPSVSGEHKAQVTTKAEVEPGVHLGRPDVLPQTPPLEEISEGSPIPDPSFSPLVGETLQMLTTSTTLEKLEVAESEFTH
Protocol: as §1

[20] = target: PRKD3 (Homo sapiens, UniProt O94806)
PRKD3, sequence (O94806 whole entry): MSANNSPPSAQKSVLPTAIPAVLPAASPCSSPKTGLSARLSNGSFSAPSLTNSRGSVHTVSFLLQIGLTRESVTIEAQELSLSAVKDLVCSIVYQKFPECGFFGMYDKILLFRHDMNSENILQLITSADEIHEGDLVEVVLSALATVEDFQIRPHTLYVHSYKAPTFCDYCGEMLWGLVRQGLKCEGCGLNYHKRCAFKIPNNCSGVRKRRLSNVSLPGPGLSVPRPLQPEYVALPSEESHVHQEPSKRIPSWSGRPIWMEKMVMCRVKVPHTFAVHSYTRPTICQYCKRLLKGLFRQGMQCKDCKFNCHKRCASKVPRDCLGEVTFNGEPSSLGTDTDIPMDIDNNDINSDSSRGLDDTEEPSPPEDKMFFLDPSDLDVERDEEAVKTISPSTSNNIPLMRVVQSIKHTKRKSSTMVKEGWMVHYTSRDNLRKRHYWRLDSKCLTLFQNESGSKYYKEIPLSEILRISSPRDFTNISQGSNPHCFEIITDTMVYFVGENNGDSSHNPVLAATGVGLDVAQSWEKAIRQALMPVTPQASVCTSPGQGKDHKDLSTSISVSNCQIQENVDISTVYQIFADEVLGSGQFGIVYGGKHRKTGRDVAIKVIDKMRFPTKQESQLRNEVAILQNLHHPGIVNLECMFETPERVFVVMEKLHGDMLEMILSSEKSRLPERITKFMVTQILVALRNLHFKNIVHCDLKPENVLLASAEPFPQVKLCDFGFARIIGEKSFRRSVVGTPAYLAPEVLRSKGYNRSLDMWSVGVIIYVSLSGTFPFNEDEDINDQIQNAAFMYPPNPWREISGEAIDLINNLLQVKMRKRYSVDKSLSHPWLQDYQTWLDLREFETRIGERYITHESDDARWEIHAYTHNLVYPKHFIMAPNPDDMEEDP
Protocol: as §1

[21] = target: CHEK1 (Homo sapiens, UniProt O14757)
Protocol: as §1

C=C(C)[C@H]1CC=C(C)C(=O)C1 [S-carvone]
remaining binding at 100 µM [1]: 72%
remaining binding at 100 µM [2]: 77%
remaining binding at 100 µM [3]: 71%
remaining binding at 100 µM [4]: 96%
remaining binding at 100 µM [5]: 74%
remaining binding at 100 µM [6]: 76%
remaining binding at 100 µM [7]: 82%
remaining binding at 100 µM [8]: 75%
remaining binding at 100 µM [9]: 65%
remaining binding at 100 µM [10]: 65%
remaining binding at 100 µM [11]: 90%
remaining binding at 100 µM [12]: 81%
remaining binding at 100 µM [13]: 90%
remaining binding at 100 µM [14]: 67%
remaining binding at 100 µM [15]: 69%
remaining binding at 100 µM [16]: 87%
remaining binding at 100 µM [17]: 81%
remaining binding at 100 µM [18]: 67%
remaining binding at 100 µM [19]: 98%
remaining binding at 100 µM [20]: 92%
remaining binding at 100 µM [21]: 91%
